Results published in US10994015B2, “EGFR proteolysis targeting chimeric molecules and associated methods of use” (Arvinas Operations, Inc., priority 2016, dated 2021).

What was measured:
EGFR L858R/T790M/C797S = EGFR L858R/T790M/C797S (Homo sapiens (Human), UniProt P00533, C797S/L858R/T790M); test: TR-FRET assay for ERBB kinases; type: biochemical; settings: geometric mean if measured more than once
Procedure, shortened: (§1)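 Three-fold DMSO dilution series of each compound is diluted 10-fold into HEPES buffer (pH 7.5, NaCl, MgCl2, DTT, Pluronic). Enzyme is added for a 10 min pre-incubation. ATP/peptide mix (3 mM ATP, 30 uM substrate as added) starts a 10 min room-temperature reaction, halted with EDTA and Tb antibody.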

EGFR WT = EGFR WT (Homo sapiens (Human), UniProt P00533); test: TR-FRET assay for ERBB kinases; type: biochemical; settings: geometric mean if measured more than once
Procedure, shortened: as §1

EGFR L858R/T790M = EGFR L858R/T790M (Homo sapiens (Human), UniProt P00533, L858R/T790M); test: TR-FRET assay for ERBB kinases; type: biochemical; settings: geometric mean if measured more than once
Procedure, shortened: as §1

[1] = target: EGFR-wt (MDA-MB-231 or MCF7 or A549 or OVCAR8) (Homo sapiens (Human), UniProt P00533); test: EGFR protein degradation assay (Western blot); type: cell-based; settings: 72 hours, 300 nM to 10 nM
Procedure, shortened: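 EGFR degradation was assessed by Western blot. Cells expressing the appropriate EGFR were seeded in 6-well plates (300,000 cells per well) and adhered overnight. Media was removed, cells were washed with cold phosphate-buffered saline, scraped into 400 μl Cell Signaling lysis buffer plus protease inhibitor cocktail, and spun once at 10 000 rpm for 10 minutes. After BCA quantification, loading buffer and reducing agent were added. Gels loaded with 10 μg protein ran at 165V for 2 hours, and bands were visualized by chemiluminescence.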

EGFR Exon 20 ASV (HeLa*) = EGFR Exon 20 ASV (HeLa*) (Homo sapiens (Human), UniProt P00533, DUP767-769); test: EGFR protein degradation assay (Western blot); type: cell-based; settings: 72 hours, 300 nM to 10 nM
EGFR Exon20NPG = EGFR Exon20NPG (Homo sapiens (Human), UniProt P00533, INS770NPG); test: TR-FRET assay for ERBB kinases; type: biochemical; settings: geometric mean if measured more than once
Procedure, shortened: (§2)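 Phosphorylation of fluorescein-labeled poly-GluTyr read as TR-FRET using Tb-pY20 antibody after EDTA stop, with 340 nm excitation. Kinase reaction ran 10 min at room temperature following 10 min compound pre-incubation; substrate mix held 3 mM ATP and 30 µM peptide before addition. Buffer was HEPES pH 7.5.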

[2] = target: EGFR L858R/T790M/C797S triple mutant (H520*) (Homo sapiens (Human), UniProt P00533, C797S/L858R/T790M); test: EGFR protein degradation assay (Western blot); type: cell-based; settings: 72 hours, 300 nM to 10 nM
Procedure, shortened: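 EGFR loss in the triple-mutant line measured by immunoblot: clarified lysates normalised by BCA, run on 4-12% Bis-Tris gels, blotted to PVDF, probed with HRP anti-rabbit secondary. Before lysis, cells were dosed from 1, 0.3, 0.1, 0.03 and 0.01 mM DMSO stocks (not final concentrations) after overnight culture at 37° C.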

EGFR Δ19/746/750 T790M = EGFR Δ19/746/750 T790M (Homo sapiens (Human), UniProt P00533, DEL746-750/T790M); test: TR-FRET assay for ERBB kinases; type: biochemical; settings: geometric mean if measured more than once
Procedure, shortened: as §2

EGFR Δ19/746/750 = EGFR Δ19/746/750 (Homo sapiens (Human), UniProt P00533, DEL746-750); test: TR-FRET assay for ERBB kinases; type: biochemical; settings: geometric mean if measured more than once
Procedure, shortened: as §2

Chain of EGFR Δ19/746/750 T790M (P00533 other isoform, or with tags, fused parts or gaps T790M/del 1-694/del 746-750 limits assumed): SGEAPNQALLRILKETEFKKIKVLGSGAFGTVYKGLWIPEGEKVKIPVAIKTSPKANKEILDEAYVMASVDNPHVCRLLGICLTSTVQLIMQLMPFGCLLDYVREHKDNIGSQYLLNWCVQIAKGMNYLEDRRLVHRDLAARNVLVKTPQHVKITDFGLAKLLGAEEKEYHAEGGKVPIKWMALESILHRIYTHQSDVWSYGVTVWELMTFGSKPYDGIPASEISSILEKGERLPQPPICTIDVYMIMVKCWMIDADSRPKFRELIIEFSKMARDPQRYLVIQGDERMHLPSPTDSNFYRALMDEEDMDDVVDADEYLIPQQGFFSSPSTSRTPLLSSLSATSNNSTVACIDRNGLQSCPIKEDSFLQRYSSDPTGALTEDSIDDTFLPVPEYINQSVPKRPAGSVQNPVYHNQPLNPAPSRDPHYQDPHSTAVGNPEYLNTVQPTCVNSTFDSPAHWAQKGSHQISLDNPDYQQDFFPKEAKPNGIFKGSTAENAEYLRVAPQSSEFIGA
Chain of EGFR-wt (MDA-MB-231 or MCF7 or A549 or OVCAR8) (P00533 25-1210): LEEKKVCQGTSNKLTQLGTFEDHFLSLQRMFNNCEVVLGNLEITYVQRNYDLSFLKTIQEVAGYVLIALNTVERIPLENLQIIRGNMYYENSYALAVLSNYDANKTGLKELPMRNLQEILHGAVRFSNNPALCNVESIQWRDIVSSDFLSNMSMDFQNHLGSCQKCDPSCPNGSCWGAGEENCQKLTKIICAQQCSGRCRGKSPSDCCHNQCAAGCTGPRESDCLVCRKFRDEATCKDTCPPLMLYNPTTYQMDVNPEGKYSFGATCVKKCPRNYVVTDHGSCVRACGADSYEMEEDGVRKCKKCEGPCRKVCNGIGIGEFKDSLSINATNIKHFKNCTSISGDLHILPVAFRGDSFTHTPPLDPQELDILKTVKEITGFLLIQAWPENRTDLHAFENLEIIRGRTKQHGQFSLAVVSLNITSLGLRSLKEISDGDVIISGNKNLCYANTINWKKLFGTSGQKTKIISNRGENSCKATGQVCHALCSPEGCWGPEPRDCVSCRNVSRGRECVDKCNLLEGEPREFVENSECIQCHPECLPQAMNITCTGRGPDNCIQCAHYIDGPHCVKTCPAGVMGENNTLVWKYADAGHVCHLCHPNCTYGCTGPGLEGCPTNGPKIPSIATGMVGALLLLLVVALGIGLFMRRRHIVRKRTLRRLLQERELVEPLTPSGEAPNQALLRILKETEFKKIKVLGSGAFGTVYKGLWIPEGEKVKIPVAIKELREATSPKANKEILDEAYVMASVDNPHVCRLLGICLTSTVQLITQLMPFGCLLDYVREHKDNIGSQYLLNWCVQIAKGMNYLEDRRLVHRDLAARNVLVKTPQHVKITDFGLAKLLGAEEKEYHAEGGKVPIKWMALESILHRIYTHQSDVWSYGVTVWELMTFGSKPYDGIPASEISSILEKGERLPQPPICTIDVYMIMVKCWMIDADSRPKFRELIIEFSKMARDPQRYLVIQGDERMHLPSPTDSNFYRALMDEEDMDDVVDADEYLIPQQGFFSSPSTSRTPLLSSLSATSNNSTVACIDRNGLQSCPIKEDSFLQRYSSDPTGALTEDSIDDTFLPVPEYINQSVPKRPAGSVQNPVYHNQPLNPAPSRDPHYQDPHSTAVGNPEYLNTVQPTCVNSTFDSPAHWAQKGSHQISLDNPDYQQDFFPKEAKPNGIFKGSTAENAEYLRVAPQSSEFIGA
Chain of EGFR WT (P00533 25-1210): as above
Chain of EGFR L858R/T790M/C797S (P00533 25-1210 T790M/C797S/L858R): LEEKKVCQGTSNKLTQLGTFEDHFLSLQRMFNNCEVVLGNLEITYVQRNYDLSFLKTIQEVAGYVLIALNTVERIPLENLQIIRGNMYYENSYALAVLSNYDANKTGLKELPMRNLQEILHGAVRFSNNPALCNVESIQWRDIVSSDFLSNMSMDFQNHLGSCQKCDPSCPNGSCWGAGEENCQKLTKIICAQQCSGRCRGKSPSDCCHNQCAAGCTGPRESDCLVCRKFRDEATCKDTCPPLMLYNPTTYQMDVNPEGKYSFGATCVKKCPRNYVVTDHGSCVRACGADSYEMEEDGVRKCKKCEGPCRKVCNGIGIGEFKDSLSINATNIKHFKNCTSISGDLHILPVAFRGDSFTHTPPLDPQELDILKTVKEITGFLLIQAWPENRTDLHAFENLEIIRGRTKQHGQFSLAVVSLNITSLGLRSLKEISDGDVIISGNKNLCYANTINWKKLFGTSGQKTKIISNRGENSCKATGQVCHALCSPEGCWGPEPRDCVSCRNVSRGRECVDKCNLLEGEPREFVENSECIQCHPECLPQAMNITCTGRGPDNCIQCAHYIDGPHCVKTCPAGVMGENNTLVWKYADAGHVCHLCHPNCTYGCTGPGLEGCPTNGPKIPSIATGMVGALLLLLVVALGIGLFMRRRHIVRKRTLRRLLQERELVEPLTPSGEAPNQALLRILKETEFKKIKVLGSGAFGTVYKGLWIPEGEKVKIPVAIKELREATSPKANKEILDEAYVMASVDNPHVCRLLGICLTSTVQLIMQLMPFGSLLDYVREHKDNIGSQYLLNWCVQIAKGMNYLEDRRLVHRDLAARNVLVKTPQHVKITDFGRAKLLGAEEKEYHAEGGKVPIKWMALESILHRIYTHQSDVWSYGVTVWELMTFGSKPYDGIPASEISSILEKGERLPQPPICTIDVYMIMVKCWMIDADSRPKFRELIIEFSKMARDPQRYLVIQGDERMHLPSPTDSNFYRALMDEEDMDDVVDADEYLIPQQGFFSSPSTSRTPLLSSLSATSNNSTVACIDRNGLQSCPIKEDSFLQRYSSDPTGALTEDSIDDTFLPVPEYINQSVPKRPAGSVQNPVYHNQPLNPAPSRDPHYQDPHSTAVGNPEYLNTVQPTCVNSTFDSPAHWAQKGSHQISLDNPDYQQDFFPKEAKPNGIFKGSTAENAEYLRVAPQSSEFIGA
Chain of EGFR Δ19/746/750 (P00533 other isoform, or with tags, fused parts or gaps del 1-694/del 746-750 limits assumed): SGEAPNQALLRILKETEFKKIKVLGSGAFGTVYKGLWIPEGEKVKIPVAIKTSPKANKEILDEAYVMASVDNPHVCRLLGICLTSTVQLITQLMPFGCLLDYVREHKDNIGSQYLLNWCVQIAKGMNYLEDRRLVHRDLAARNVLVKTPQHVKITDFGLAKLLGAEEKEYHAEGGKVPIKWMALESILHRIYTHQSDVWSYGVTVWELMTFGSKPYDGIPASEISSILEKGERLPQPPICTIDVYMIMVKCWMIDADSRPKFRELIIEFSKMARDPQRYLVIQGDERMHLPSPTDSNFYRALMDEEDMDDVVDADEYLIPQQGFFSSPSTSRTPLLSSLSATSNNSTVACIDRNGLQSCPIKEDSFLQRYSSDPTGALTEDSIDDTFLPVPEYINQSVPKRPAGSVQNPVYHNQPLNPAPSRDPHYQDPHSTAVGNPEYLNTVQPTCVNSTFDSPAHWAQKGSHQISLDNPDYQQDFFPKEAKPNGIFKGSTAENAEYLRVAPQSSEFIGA
Chain of EGFR Exon20NPG (P00533 other isoform, or with tags, fused parts or gaps del 1-694/ins NPG behind 770 limits assumed): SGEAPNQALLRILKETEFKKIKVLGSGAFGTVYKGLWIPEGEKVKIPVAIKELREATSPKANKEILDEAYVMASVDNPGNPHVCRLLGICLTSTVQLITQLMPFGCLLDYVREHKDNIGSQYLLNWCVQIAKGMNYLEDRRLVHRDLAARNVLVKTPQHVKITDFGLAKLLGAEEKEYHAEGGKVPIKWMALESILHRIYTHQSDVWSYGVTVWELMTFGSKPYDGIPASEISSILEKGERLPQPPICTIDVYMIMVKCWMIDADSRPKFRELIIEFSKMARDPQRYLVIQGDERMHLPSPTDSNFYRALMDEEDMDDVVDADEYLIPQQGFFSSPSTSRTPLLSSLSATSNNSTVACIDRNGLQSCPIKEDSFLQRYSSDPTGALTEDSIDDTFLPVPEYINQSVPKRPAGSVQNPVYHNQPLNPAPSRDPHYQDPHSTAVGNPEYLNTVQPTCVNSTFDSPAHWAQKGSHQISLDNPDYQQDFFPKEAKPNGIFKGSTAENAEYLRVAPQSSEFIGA

## Cc1ncsc1-c1ccc(CNC(=O)[C@@H]2C[C@@H](O)CN2C(=O)[C@H](C(C)C)N2Cc3ccccc3C2=O)c(OCCN2CCN(Cc3ccc(-c4cc5c(NCc6ccccc6Cl)ncnc5[nH]4)cc3)CC2)c1 [Example 106, (2S,4R)—N-(2-(2-(4-(4-(4-((2-chlorobenzyl)amino)-7H-pyrrolo[2,3-d]pyrimidin-6-yl)benzyl)piperazin-1-yl)ethoxy)-4-(4-methylthiazol-5-yl)benzyl)-4-hydroxy-1-((S)-3-methyl-2-(1-oxoisoindolin-2-yl)butanoyl)pyrrolidine-2-carboxamide]
EGFR L858R/T790M/C797S
  IC50: 5200 nM
EGFR WT
  IC50: 470 nM
EGFR L858R/T790M
  IC50: 4900 nM
[1]
  EGFR protein remaining, EGFR-wt: C (>80% EGFR protein remaining after 72 hours of incubation with the test compound at a concentration of 300 nM)
EGFR Exon 20 ASV (HeLa*)
  EGFR protein remaining, EGFR Exon 20 ASV: C (>80% EGFR protein remaining after 72 hours of incubation with the test compound at a concentration of 300 nM)
EGFR Exon20NPG
  IC50: 1900 nM

## Cc1ncsc1-c1ccc(CNC(=O)[C@@H]2C[C@@H](O)CN2C(=O)[C@H](C(C)C)N2Cc3ccccc3C2=O)c(OCCOCCOCCN2CCN(Cc3ccc(-c4cc5c(NCc6ccccc6Cl)ncnc5[nH]4)cc3)CC2)c1 [Example 108, (2S,4R)—N-(2-(2-(2-(2-(4-(4-(4-((2-Chlorobenzyl)amino)-7H-pyrrolo[2,3-d]pyrimidin-6-yl)benzyl)piperazin-1-yl)ethoxy)ethoxy)ethoxy)-4-(4-methylthiazol-5-yl)benzyl)-4-hydroxy-1-((S)-3-methyl-2-(1-oxoisoindolin-2-yl)butanoyl)pyrrolidine-2-carboxamide]
EGFR L858R/T790M/C797S
  IC50: 7800 nM
EGFR WT
  IC50: 770 nM
EGFR L858R/T790M
  IC50: 10000 nM
[1]
  EGFR protein remaining, EGFR-wt: C (>80% EGFR protein remaining after 72 hours of incubation with the test compound at a concentration of 300 nM)
EGFR Exon 20 ASV (HeLa*)
  EGFR protein remaining, EGFR Exon 20 ASV: C (>80% EGFR protein remaining after 72 hours of incubation with the test compound at a concentration of 300 nM)
EGFR Exon20NPG
  IC50: 980 nM

## COC1CCN(c2nccc(Nc3cc4c(cn3)nc(COCCN3CCN(c5ccc(OCCCN6CCN(c7ccc8c(c7)C(=O)N(C7CCC(=O)NC7=O)C8=O)CC6)cc5)CC3)n4C(C)C)n2)CC1 (stereo not drawn) [Example 301, 2-(2,6-dioxopiperidin-3-yl)-5-(4-(3-(4-(4-(2-((1-isopropyl-6-((2-(4-methoxypiperidin-1-yl)pyrimidin-4-yl)amino)-1H-imidazo[4,5-c]pyridin-2-yl)methoxy)ethyl)piperazin-1-yl)phenoxy)propyl)piperazin-1-yl)isoindoline-1,3-dione]
EGFR L858R/T790M/C797S
  IC50: 34 nM
EGFR WT
  IC50: 2800 nM
EGFR L858R/T790M
  IC50: 240 nM
[2]
  EGFR protein remaining, EGFR L858R/T790M/C797S triple mutant: C (>80% EGFR protein remaining after 72 hours of incubation with the test compound at a concentration of 300 nM)
EGFR Δ19/746/750 T790M
  IC50: 270 nM
EGFR Δ19/746/750
  IC50: 1600 nM

## O=C1CCC(N2C(=O)c3ccc(OCCN4CCN(Cc5ccc(C6Cc7c(NCc8ccccc8Cl)ncnc7N6)cc5)CC4)cc3C2=O)C(=O)N1 (stereo not drawn) [compound 101]
EGFR L858R/T790M/C797S
  IC50: 3600 nM
EGFR WT
  IC50: 12 nM
EGFR L858R/T790M
  IC50: 3400 nM
[1]
  EGFR protein remaining, EGFR-wt: C (>80% EGFR protein remaining after 72 hours of incubation with the test compound at a concentration of 300 nM)
EGFR Exon 20 ASV (HeLa*)
  EGFR protein remaining, EGFR Exon 20 ASV: C (>80% EGFR protein remaining after 72 hours of incubation with the test compound at a concentration of 300 nM)
EGFR Exon20NPG
  IC50: 69 nM

## O=C1CCC(N2C(=O)c3ccc(OCCOCCOCCOCCOCCN4CCN(Cc5ccc(C6Cc7c(NCc8ccccc8Cl)ncnc7N6)cc5)CC4)cc3C2=O)C(=O)N1 (stereo not drawn) [compound 104]
EGFR L858R/T790M/C797S
  IC50: 8200 nM
EGFR WT
  IC50: 590 nM
EGFR L858R/T790M
  IC50: 12000 nM
[1]
  EGFR protein remaining, EGFR-wt: C (>80% EGFR protein remaining after 72 hours of incubation with the test compound at a concentration of 300 nM)
EGFR Exon 20 ASV (HeLa*)
  EGFR protein remaining, EGFR Exon 20 ASV: C (>80% EGFR protein remaining after 72 hours of incubation with the test compound at a concentration of 300 nM)
EGFR Exon20NPG
  IC50: 510 nM

## O=C1CCC(N2C(=O)c3ccc(OCCOCCOCCOCCOCCOCCN4CCN(Cc5ccc(C6Cc7c(NCc8ccccc8Cl)ncnc7N6)cc5)CC4)cc3C2=O)C(=O)N1 (stereo not drawn) [compound 105]
EGFR L858R/T790M/C797S
  IC50: 24000 nM
EGFR WT
  IC50: 970 nM
EGFR L858R/T790M
  IC50: > 30000 nM
[1]
  EGFR protein remaining, EGFR-wt: C (>80% EGFR protein remaining after 72 hours of incubation with the test compound at a concentration of 300 nM)
EGFR Exon 20 ASV (HeLa*)
  EGFR protein remaining, EGFR Exon 20 ASV: C (>80% EGFR protein remaining after 72 hours of incubation with the test compound at a concentration of 300 nM)
EGFR Exon20NPG
  IC50: 820 nM

## Cc1ncsc1-c1ccc(CNC(=O)[C@@H]2C[C@@H](O)CN2C(=O)[C@H](C(C)C)N2Cc3ccccc3C2=O)c(OCCOCCN2CCN(Cc3ccc(-c4cc5c(NCc6ccccc6Cl)ncnc5[nH]4)cc3)CC2)c1 [compound 107]
EGFR L858R/T790M/C797S
  IC50: 6000 nM
EGFR WT
  IC50: 140 nM
EGFR L858R/T790M
  IC50: 6700 nM
[1]
  EGFR protein remaining, EGFR-wt: C (>80% EGFR protein remaining after 72 hours of incubation with the test compound at a concentration of 300 nM)
EGFR Exon 20 ASV (HeLa*)
  EGFR protein remaining, EGFR Exon 20 ASV: C (>80% EGFR protein remaining after 72 hours of incubation with the test compound at a concentration of 300 nM)
EGFR Exon20NPG
  IC50: 600 nM

## Cc1ncsc1-c1ccc(CNC(=O)[C@@H]2C[C@@H](O)CN2C(=O)[C@H](C(C)C)N2Cc3ccccc3C2=O)c(OCCOCCOCCOCCN2CCN(Cc3ccc(-c4cc5c(NCc6ccccc6Cl)ncnc5[nH]4)cc3)CC2)c1 [compound 109]
EGFR L858R/T790M/C797S
  IC50: 8900 nM
EGFR WT
  IC50: 180 nM
EGFR L858R/T790M
  IC50: 6000 nM
[1]
  EGFR protein remaining, EGFR-wt: C (>80% EGFR protein remaining after 72 hours of incubation with the test compound at a concentration of 300 nM)
EGFR Exon 20 ASV (HeLa*)
  EGFR protein remaining, EGFR Exon 20 ASV: C (>80% EGFR protein remaining after 72 hours of incubation with the test compound at a concentration of 300 nM)
EGFR Exon20NPG
  IC50: 580 nM

## Cc1ncsc1-c1ccc(CNC(=O)[C@@H]2C[C@@H](O)CN2C(=O)[C@H](C(C)C)N2Cc3ccccc3C2=O)c(OCCOCCOCCOCCOCCN2CCN(Cc3ccc(-c4cc5c(NCc6ccccc6Cl)ncnc5[nH]4)cc3)CC2)c1 [compound 110]
EGFR L858R/T790M/C797S
  IC50: 12000 nM
EGFR WT
  IC50: 770 nM
EGFR L858R/T790M
  IC50: 8600 nM
[1]
  EGFR protein remaining, EGFR-wt: C (>80% EGFR protein remaining after 72 hours of incubation with the test compound at a concentration of 300 nM)
EGFR Exon 20 ASV (HeLa*)
  EGFR protein remaining, EGFR Exon 20 ASV: C (>80% EGFR protein remaining after 72 hours of incubation with the test compound at a concentration of 300 nM)
EGFR Exon20NPG
  IC50: 1800 nM

## Cc1ncsc1-c1ccc([C@H](C)NC(=O)[C@@H]2C[C@@H](O)CN2C(=O)[C@@H](NC(=O)COCCCOc2ccc(N3CCN(CCOCc4nc5cnc(Nc6ccnc(-c7cnn(S(=O)(=O)C8CC8)c7)n6)cc5n4C(C)C)CC3)cc2)C(C)(C)C)cc1 [compound 306]
EGFR L858R/T790M/C797S
  IC50: 16 nM
EGFR WT
  IC50: 13000 nM
EGFR L858R/T790M
  IC50: 53 nM
[2]
  EGFR protein remaining, EGFR L858R/T790M/C797S triple mutant: A (≤50% EGFR protein remaining after 72 hours of incubation with the test compound at a concentration between 300 nM and 10 nM)
EGFR Δ19/746/750 T790M
  IC50: 21 nM
EGFR Δ19/746/750
  IC50: 380 nM

## Cc1ncsc1-c1ccc([C@H](C)NC(=O)[C@@H]2C[C@@H](O)CN2C(=O)[C@@H](NC(=O)COCCOCCCNCC2CN(c3nn(C(C)C)c4cc(Nc5ccnc(-c6cnn(S(=O)(=O)C7CC7)c6)n5)ncc34)C2)C(C)(C)C)cc1 [compound 308]
EGFR L858R/T790M/C797S
  IC50: 0.27 nM
EGFR WT
  IC50: 120 nM
EGFR L858R/T790M
  IC50: 0.91 nM
[2]
  EGFR protein remaining, EGFR L858R/T790M/C797S triple mutant: B (≤80% and >50% EGFR protein remaining after 72 hours of incubation with the test compound at a concentration between 300 nM and 10 nM)
EGFR Δ19/746/750 T790M
  IC50: 2.1 nM
EGFR Δ19/746/750
  IC50: 53 nM

## Cc1ncsc1-c1ccc([C@H](C)NC(=O)[C@@H]2C[C@@H](O)CN2C(=O)[C@@H](NC(=O)CN2CCN(CCOCCOCCOCCOCC#Cc3cccc4c3C(=O)N(C(C(=O)Nc3nccs3)c3cc(F)ccc3O)C4)CC2)C(C)(C)C)cc1 (stereo partly drawn) [compound 309]
EGFR L858R/T790M/C797S
  IC50: 25 nM
EGFR WT
  IC50: 7.2 nM
EGFR L858R/T790M
  IC50: 120 nM
[2]
  EGFR protein remaining, EGFR L858R/T790M/C797S triple mutant: C (>80% EGFR protein remaining after 72 hours of incubation with the test compound at a concentration of 300 nM)
EGFR Δ19/746/750 T790M
  IC50: 5100 nM
EGFR Δ19/746/750
  IC50: 1900 nM
